Values joined by “and” are separate entries in the source; they are usually repeats but may differ in a detail not shown here. Identical values can stand only once. Each block holds one molecule with its values, some of them ahead of it.
Columns and labels:
[1] = test system: HEK293T:hFAP tumor-bearing mice; assay: Ex vivo biodistribution study; type: in vivo; conditions: 1 h pi; for Adrenal Glands uptake / Blood uptake / Bone uptake / Brain uptake / Fat uptake / Heart uptake / Kidneys uptake / Large Intestines uptake / Liver uptake / Lungs uptake / Muscle uptake / Pancreas uptake / Small Intestine uptake / Spleen uptake / Stomach uptake / Testes uptake / Thyroid uptake / Tumor uptake / Tumor/Blood uptake ratio / Tumor/Bone uptake ratio / Tumor/Kidney uptake ratio / Tumor/Muscle uptake ratio: n = 4
Method: (§1) Imaging and biodistribution studies were performed using immunodeficient male NRG (NOD.Cg-Rag1tm1Mom Il2rgtm1Wjl/SzJ) mice following previously reported procedures. All experiments were conducted according to the guidelines established by the Canadian Council on Animal Care and approved by Animal Ethics Committee of the University of British Columbia. The mice were subcutaneously inoculated with 7.5 × 10^6 HEK293T:hFAP cells in the left dorsal flank. When the tumors grew to 6–8 mm in diameter, the mice were used for PET/CT imaging and biodistribution studies.
For the biodistribution studies, the mice were injected with ~1–2 MBq of the ^68Ga-labeled tracer, using the exact procedures as described above. At 1 h pi, the mice were euthanized by CO2 inhalation. Blood was withdrawn by a cardiac puncture, and the organs/tissues of interest were collected, weighed and counted using a Perkin Elmer (Waltham, MA, USA) Wizard2 2480 automatic gamma counter. The uptake values in percent of injected dose per gram of tissues (%ID/g) for the different tracers were calculated.
(§2) For blocking studies, HEK293T:hFAP tumor-bearing mice were co-injected [^68Ga]Ga-SB04028 with an excess of FAPI-04 (0.5 mg/mouse) as a competitor. Imaging and biodistribution studies were performed at 1 h pi similar to the unblocked mice.

[2] = test system: HEK293T:hFAP tumor xenograft; assay: PET/CT imaging; type: in vivo, mice; conditions: 1 h pi
Method: as §1
The PET/CT imaging experiments were carried out using a Siemens Inveon micro PET/CT scanner (Knoxville, TN, USA). Tumor-bearing mice were injected with ~4 to 6 MBq of ^68Ga-labeled tracer through a lateral caudal tail vein under 2.5% isoflurane in oxygen anesthesia, followed by recovery and free roaming in their cage during the uptake period. A 10 min localization CT scan was acquired using 3 overlapping positions to cover the entire mouse. The CT scan was used for the attenuation and scatter correction, and anatomical localization. A list mode acquisition was then performed for 15 min at 1 h pi with the mouse under isoflurane sedation. The images were reconstructed using 3D OSEM/MAP iterative methods.
as §2

[3] = In vivo stability study (radio-HPLC of plasma and urine); parameters: species or system mice; conditions: male NRG mice, 15 min pi, n = 3
Method: In vivo stability studies were performed using healthy (non-tumor-bearing) male NRG mice following previously reported procedures. Briefly, [^68Ga]Ga-SB02055 (6.32 ± 0.16 MBq) and [^68Ga]Ga-SB04028 (9.90 ± 0.26 MBq) were injected via the lateral caudal vein into the mice (n = 3). At 15 min pi, the mice were sedated and euthanized, and urine and blood were collected. The blood was processed to obtain plasma by adding 0.5 mL of acetonitrile to 0.5–0.8 mL of whole blood, then vortexing and centrifuging the resulting mixture on a benchtop mini-centrifuge (Fisherbrand™ Mini-Centrifuge 100–240 V, 50/60 Hz Universal Plug) for 20 min. The supernatant was collected and filtered to give the blood plasma. The plasma and urine samples were analyzed via radio-HPLC by using the same conditions as those used for quality control of these ^68Ga-labeled radioligands.

[4] = test system: FAP-positive SK-Mel-187 melanoma xenograft; parameters: method as in PMID 25633335; conditions: in vitro; cited from earlier work
tumor = test system: tumor; parameters: method as in doi:10.1158/1538-7445.AM2022-3303; conditions: up to 168 h pi; cited from earlier work
[5] = test system: HEK-mFAP murine tumor model; parameters: method as in doi:10.1158/1538-7445.AM2022-3303; conditions: single dose; cited from earlier work
[6] = parameters: method as in PMID 35631416; conditions: patients, after administrating 740 MBq; cited from earlier work
[7] = HEK293T:hFAP tumor-bearing male NRG mice, unblocked
[8] = HEK293T:hFAP tumor-bearing mice, blocked: co-injected with FAPI-04 (0.5 mg/mouse)

- Adrenal Glands uptake [1, 7]: 0.14 ± 0.10 %ID/g
- Blood uptake [1, 7]: 0.97 ± 0.03 %ID/g
- Bone uptake [1, 7]: 0.24 ± 0.09 %ID/g
- Brain uptake [1, 7]: 0.02 ± 0.00 %ID/g
- Fat uptake [1, 7]: 0.07 ± 0.01 %ID/g
- Heart uptake [1, 7]: 0.24 ± 0.02 %ID/g
- Kidneys uptake [1, 7]: 2.10 ± 0.33 %ID/g
- Large Intestines uptake [1, 7]: 0.13 ± 0.03 %ID/g
- Liver uptake [1, 7]: 0.32 ± 0.03 %ID/g
- Lungs uptake [1, 7]: 0.59 ± 0.04 %ID/g
- Muscle uptake [1, 7]: 0.13 ± 0.01 %ID/g
- Pancreas uptake [1, 7]: 0.18 ± 0.02 %ID/g
- Small Intestine uptake [1, 7]: 0.34 ± 0.02 %ID/g
- Spleen uptake [1, 7]: 0.25 ± 0.04 %ID/g
- Stomach uptake [1, 7]: 0.06 ± 0.01 %ID/g
- Testes uptake [1, 7]: 0.18 ± 0.02 %ID/g
- Thyroid uptake [1, 7]: 0.35 ± 0.00 %ID/g
- Tumor uptake [1, 7]: 10.1 ± 0.42 %ID/g
- Tumor/Blood uptake ratio [1, 7]: 10.4 ± 0.70
- Tumor/Bone uptake ratio [1, 7]: 48.1 ± 20.5
- Tumor/Kidney uptake ratio [1, 7]: 4.89 ± 0.72
- Tumor/Muscle uptake ratio [1, 7]: 79.9 ± 7.50
- fold higher tumor uptake compared to [68Ga]Ga-PNT6555 ([1]; HEK293T:hFAP tumor-bearing mice): ~ 1.5 fold and > 1.5 fold
- Adrenal Glands uptake [1, 8]: 0.09 ± 0.06 %ID/g
- Blood uptake [1, 8]: 0.49 ± 0.13 %ID/g
- Bone uptake [1, 8]: 0.01 ± 0.00 %ID/g
- Brain uptake [1, 8]: 0.02 ± 0.00 %ID/g
- Fat uptake [1, 8]: 0.14 ± 0.13 %ID/g
- Heart uptake [1, 8]: 0.11 ± 0.00 %ID/g
- Kidneys uptake [1, 8]: 2.53 ± 0.57 %ID/g
- Large Intestines uptake [1, 8]: 0.08 ± 0.03 %ID/g
- Liver uptake [1, 8]: 0.30 ± 0.05 %ID/g
- Lungs uptake [1, 8]: 0.78 ± 0.37 %ID/g
- Muscle uptake [1, 8]: 0.66 ± 0.12 %ID/g
- Pancreas uptake [1, 8]: 0.09 ± 0.02 %ID/g
- Small Intestine uptake [1, 8]: 0.34 ± 0.04 %ID/g
- Spleen uptake [1, 8]: 0.18 ± 0.02 %ID/g
- Stomach uptake [1, 8]: 0.03 ± 0.00 %ID/g
- Testes uptake [1, 8]: 0.12 ± 0.01 %ID/g
- Thyroid uptake [1, 8]: 0.14 ± 0.01 %ID/g
- Tumor uptake [1, 8]: 0.30 ± 0.04 %ID/g
- Tumor/Blood uptake ratio [1, 8]: 0.63 ± 0.09
- Tumor/Bone uptake ratio [1, 8]: 33.9 ± 13.3
- Tumor/Kidney uptake ratio [1, 8]: 0.12 ± 0.03
- Tumor/Muscle uptake ratio [1, 8]: 0.46 ± 0.06
- fraction of tracer remaining intact in plasma [3]: 46.6 ± 0.21%
- fraction of tracer remaining intact in urine [3]: 53.6 ± 7.11% and > 54%
Molecule: CC(NC(=O)c1ccnc2ccc(OCCCN3CCN(C(=O)CN4CCN(CC(=O)[O-])CCN(CC(=O)[O-])CCN(CC(=O)[O-])CC4)CC3)cc12)C(=O)N1CCCC1B(O)O.[68Ga+3] (centres unmarked) [[^68Ga]Ga-SB04028]
- reduction of average tumor uptake upon co-injection with FAPI-04 ([1]; FAPI-04 0.5 mg/mouse, HEK293T:hFAP tumor-bearing mice): ~ 97%
- tumor uptake on PET/CT image upon co-injection with FAPI-04 ([2]; FAPI-04 0.5 mg/mouse): reduced the tumor uptake to the background level
- tumor on PET/CT image ([2]; HEK293T:hFAP tumor xenograft, unblocked): clear visualization

Molecule: O=C(NCC(=O)N1CCC[C@H]1B(O)O)c1ccc([125I])cc1 [[^125I]MIP-1232]
- accumulation in FAP-positive SK-Mel-187 melanoma xenograft [4]: strongly accumulate

Molecule: CC(NC(=O)c1ccc(CNC(=O)CN2CCN(CC(=O)[O-])CCN(CC(=O)[O-])CCN(CC(=O)[O-])CC2)cc1)C(=O)N1CCCC1B(O)O.[177Lu+3] (centres unmarked) [[^177Lu]Lu-PNT6555]
- tumor retention (tumor): > 10 %ID/g
- anti-tumor efficacy [5]: dose-dependent anti-tumor efficacy

Molecule: CC(NC(=O)c1ccc(CNC(=O)CN2CCN(CC(=O)[O-])CCN(CC(=O)[O-])CCN(CC(=O)[O-])CC2)cc1)C(=O)N1CCCC1B(O)O.[225Ac+3] (centres unmarked) [[^225Ac]Ac-PNT6555]
- anti-tumor efficacy [5]: dose-dependent anti-tumor efficacy

Molecule: [^99mTc]Tc-HYNIC-D-Ala-boroPro [[^99mTc]Tc-iFAP]
- effective dose [6]: 2.3 ± 0.4 mSv
- mean radiation equivalent dose for the kidney [6]: 5.2 ± 0.8 mSv
